Laboratory results taken from PubChem BioAssay (NCI).
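Here, GI50 denotes the concentration required for 50% inhibition of growth. TGI denotes the concentration required for complete inhibition of growth.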

Tests used:
Assay in all cases: NCI anticancer screen, dose series, 384-well format
[1] = test system: UO-31 renal
[2] = test system: OVCAR-4 ovarian
[3] = test system: MDA-MB-435 melanoma
[4] = test system: HCT-15 colon
[5] = test system: NCI-H460 NSCLC
[6] = test system: SK-MEL-28 melanoma
[7] = test system: OVCAR-5 ovarian
[8] = test system: HL-60(TB) leukemia
[9] = test system: UACC-62 melanoma
[10] = test system: NCI-H23 lung
[11] = test system: BT-549 breast
[12] = test system: SR leukemia
[13] = test system: MCF7 breast
[14] = test system: SK-OV-3 ovarian
[15] = test system: NCI-H226 lung
[16] = test system: MOLT-4 leukemia
[17] = test system: OVCAR-8 ovarian
[18] = test system: NCI/ADR-RES ovarian
[19] = test system: KM12 colon
[20] = test system: IGROV1 ovarian
[21] = test system: SF-539 CNS
[22] = test system: 786-0 renal
[23] = test system: HCC-2998 colon
[24] = test system: M14 melanoma
[25] = test system: HCT-116 colon
[26] = test system: TK-10 renal
[27] = test system: RXF 393 renal
[28] = test system: RPMI-8226 leukemia
[29] = test system: ACHN renal
[30] = test system: SNB-19 CNS
[31] = test system: T-47D breast
[32] = test system: K-562 leukemia
[33] = test system: DU-145 prostate
[34] = test system: SK-MEL-2 melanoma
[35] = test system: SW-620 colon
[36] = test system: U251 glioblastoma
[37] = test system: SN12C renal
[38] = test system: HT29 colon
[39] = test system: SF-268 CNS
[40] = test system: HS 578T breast
[41] = test system: HOP-92 NSCLC
[42] = test system: COLO 205 colon
[43] = test system: NCI-H522 lung
[44] = test system: OVCAR-3 ovarian
[45] = test system: EKVX NSCLC
[46] = test system: A498 renal
[47] = test system: PC-3 prostate

Which results are given for `Cc1nc2ccc(-n3ncc(C(=O)c4cc5ccccc5[nH]4)c3N)cc2[nH]1`?
GI50 [1]: 7.35 µM; TGI [1]: 34.5 µM; GI50 [2]: 10.4 µM; TGI [2]: 40.2 µM; GI50 [3]: 11.2 µM; TGI [3]: 42.9 µM; GI50 [4]: 1.56 µM; TGI [4]: 13.4 µM; GI50 [5]: 2.37 µM; TGI [5]: 9.74 µM; GI50 [6]: 19.5 µM; TGI [6]: 58.3 µM; GI50 [7]: 8.84 µM; TGI [7]: > 82.6 µM; GI50 [8]: 2.97 µM; TGI [8]: 12.3 µM; GI50 [9]: 5.92 µM; TGI [9]: 18.6 µM; GI50 [10]: 17.5 µM; TGI [10]: 36.4 µM; GI50 [11]: 5.72 µM; TGI [11]: 20.7 µM; GI50 [12]: 0.668 µM; TGI [12]: 1.58 µM; GI50 [13]: 6.62 µM; TGI [13]: 24.8 µM; GI50 [14]: 11.3 µM; TGI [14]: 30.6 µM; GI50 [15]: 5.45 µM; TGI [15]: 29.5 µM; GI50 [16]: 1.93 µM; TGI [16]: 5 µM; GI50 [17]: 6.08 µM; TGI [17]: 18.8 µM; GI50 [18]: 8.76 µM; TGI [18]: 23.8 µM; GI50 [19]: 3.3 µM; TGI [19]: 12.3 µM; GI50 [20]: 6 µM; TGI [20]: 22.8 µM; GI50 [21]: 2.13 µM; TGI [21]: 10.5 µM; GI50 [22]: 8.85 µM; TGI [22]: 26.7 µM; GI50 [23]: 13.1 µM; TGI [23]: 30.8 µM; GI50 [24]: 12.5 µM; TGI [24]: 28.4 µM; GI50 [25]: 3.78 µM; TGI [25]: 16.1 µM; GI50 [26]: 4.78 µM; TGI [26]: 20.5 µM; GI50 [27]: 2.37 µM; TGI [27]: 10.5 µM; GI50 [28]: 6.35 µM; TGI [28]: 17.3 µM; GI50 [29]: 8.92 µM; TGI [29]: 48.5 µM; GI50 [30]: 16 µM; TGI [30]: > 66.7 µM; GI50 [31]: 6.8 µM; TGI [31]: 19.3 µM; GI50 [32]: 3.95 µM; TGI [32]: 14.3 µM; GI50 [33]: 12.7 µM; TGI [33]: 41.7 µM; GI50 [34]: 28.2 µM; TGI [34]: 44 µM; GI50 [35]: 10.4 µM; TGI [35]: 51.2 µM; GI50 [36]: 6.53 µM; TGI [36]: 25.5 µM; GI50 [37]: 6.46 µM; TGI [37]: 45.9 µM; GI50 [38]: 5.55 µM; TGI [38]: 20.5 µM; GI50 [39]: 10.6 µM; TGI [39]: 55.9 µM; GI50 [40]: 6.48 µM; TGI [40]: 26 µM; GI50 [41]: 10.3 µM; TGI [41]: 30.3 µM; GI50 [42]: 5.86 µM; TGI [42]: 30.2 µM; GI50 [43]: 5.33 µM; TGI [43]: 17.6 µM; GI50 [44]: 10.7 µM; TGI [44]: 26 µM; GI50 [45]: 15.3 µM; TGI [45]: 41.1 µM; GI50 [46]: 12.4 µM; TGI [46]: 33.5 µM; GI50 [47]: 7.51 µM; TGI [47]: 26.6 µM

What does the source list for `CC(C)n1cc(-c2ccc3c(c2)N(C)CC3)c2c(NS(=O)(=O)c3ccn(C)n3)ccnc21`?
GI50 [1]: 78.6 µM; TGI [1]: > 100 µM; GI50 [2]: 59.8 µM; TGI [2]: > 100 µM; GI50 [3]: > 93 µM; TGI [3]: > 100 µM; GI50 [4]: 90.6 µM; TGI [4]: > 100 µM; GI50 [5]: > 85.7 µM; TGI [5]: > 100 µM; GI50 [6]: > 93.5 µM; TGI [6]: > 100 µM; GI50 [7]: > 100 µM; TGI [7]: > 100 µM; GI50 [8]: 33.1 µM; TGI [8]: > 61.4 µM; GI50 [9]: 63.4 µM; TGI [9]: > 100 µM; GI50 [10]: > 70 µM; TGI [10]: > 100 µM; GI50 [11]: > 100 µM; TGI [11]: > 100 µM; GI50 [12]: 36.5 µM; TGI [12]: > 100 µM; GI50 [13]: 56.3 µM; TGI [13]: > 100 µM; GI50 [14]: > 52.6 µM; TGI [14]: > 85.4 µM; GI50 [15]: > 96.1 µM; TGI [15]: > 100 µM; GI50 [16]: 39.1 µM; TGI [16]: > 100 µM; GI50 [17]: > 70.4 µM; TGI [17]: > 100 µM; GI50 [18]: 61.2 µM; TGI [18]: > 100 µM; GI50 [19]: 78 µM; TGI [19]: > 100 µM; GI50 [20]: > 74.4 µM; TGI [20]: > 100 µM; GI50 [21]: > 100 µM; TGI [21]: > 100 µM; GI50 [22]: > 100 µM; TGI [22]: > 100 µM; GI50 [23]: > 100 µM; TGI [23]: > 100 µM; GI50 [24]: > 100 µM; TGI [24]: > 100 µM; GI50 [25]: > 100 µM; TGI [25]: > 100 µM; GI50 [26]: > 100 µM; TGI [26]: > 100 µM; GI50 [27]: 51.2 µM; TGI [27]: > 100 µM; GI50 [28]: 21.8 µM; TGI [28]: 52.9 µM; GI50 [29]: > 100 µM; TGI [29]: > 100 µM; GI50 [30]: > 100 µM; TGI [30]: > 100 µM; GI50 [31]: 50.9 µM; TGI [31]: > 100 µM; GI50 [32]: 53.2 µM; TGI [32]: > 100 µM; GI50 [33]: > 70.7 µM; TGI [33]: > 100 µM; GI50 [34]: > 100 µM; TGI [34]: > 100 µM; GI50 [35]: > 51.5 µM; TGI [35]: > 81.7 µM; GI50 [36]: 87.1 µM; TGI [36]: > 100 µM; GI50 [37]: > 100 µM; TGI [37]: > 100 µM; GI50 [38]: > 77.2 µM; TGI [38]: > 100 µM; GI50 [39]: > 100 µM; TGI [39]: > 100 µM; GI50 [40]: 69.3 µM; TGI [40]: > 100 µM; GI50 [41]: > 62.9 µM; TGI [41]: > 100 µM; GI50 [42]: > 78.9 µM; TGI [42]: > 100 µM; GI50 [43]: > 80.4 µM; TGI [43]: > 100 µM; GI50 [44]: 40.5 µM; TGI [44]: > 87.6 µM; GI50 [45]: 75.6 µM; TGI [45]: > 100 µM; GI50 [46]: 85.7 µM; TGI [46]: > 100 µM; GI50 [47]: 66.7 µM; TGI [47]: > 100 µM
